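Protocol summary: plate cells (96-well), add compound at 5 concentrations, incubate 48 h, interpolate endpoints linearly. The concentration for 50% growth inhibition is given as GI50.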 Calls of active or inactive are those of the source. Cut-off read from the data, not from the text of the source: active = GI50 up to about 1.1 µM and inactive = higher.

What all share (assay): NCI anticancer screen, dose series, 48 h
The test system of test [1] is OVCAR-3.
Test [2] concerns HCC 2998.
The test system of test [3] is MOLT-4.
Test [4] deals with SF-539.
For test [5], the system named is UACC-257.
Test [6] deals with M14.
Test [7] deals with HOP-92.
Test [8] deals with HT-29.
Test [9] deals with SNB-75.
In test [10] the test system is KM12.
Test [11] deals with A498.
In test [12] the test system is NCI-H226.
Test [13] has as its system LOX IMVI.
Test [14] has as its system HOP-62.
In test [15] the test system is OVCAR-5.
Test [16] concerns 786-0.
Test [17] relates to U-251.
The test system of test [18] is CAKI-1.
Test [19] has as its system HL-60.

Take `COc1cc2c(cc1OCc1ccccc1)NC(=S)[C@@H]1CCCN1C2=S`: the GI50 in test [1] is 43.1 µM (inactive); in [2], > 100 µM (inactive); in [3] it was > 100 µM (inactive); in test [4] it was 17.4 µM (inactive); in test [5], > 100 µM (inactive); in [6] it was > 100 µM (inactive). In addition, the GI50 is 94 µM (inactive) in test [7]; 18.2 µM (inactive) in test [8]; 15 µM (inactive) in test [9]; 30.1 µM (inactive) in test [10]; > 100 µM (inactive) in test [11]; 93.5 µM (inactive) in test [12]. Also, the GI50 in [13] was 55.5 µM (inactive); in test [14], 5.85 µM (inactive); in [15], > 100 µM (inactive); in test [16], 88.1 µM (inactive); in test [17], 49.4 µM (inactive); in test [18], > 100 µM (inactive).

Consider `O=C(O)c1cc(CCc2ccc(O)c(O)c2)ccc1O`, for which the GI50 in [1], in [2], in [3], in test [4], in [5] and in test [6] was > 100 µM (inactive) throughout. Besides, the GI50 in [8], in [9], in test [10], in test [11], in test [12] and in test [14] was > 100 µM (inactive) in each case. In addition, the GI50 is > 100 µM (inactive) in test [15]; > 100 µM (inactive) in [16]; > 100 µM (inactive) in [17]; 23.2 µM (inactive) in [19]; > 100 µM (inactive) in test [18].

With `CC(=O)N1N=C(c2ccc3ccccc3c2O)CC1c1ccc(Cl)cc1Cl` (centres undefined), the GI50 in test [1] is 15.6 µM (inactive); in [2], > 100 µM (inactive); in [3] it was 7.67 µM (inactive); in test [4], 18.1 µM (inactive); in [5] it was 44.2 µM (inactive); in test [6] it was 27.2 µM (inactive). The GI50 in [7] was 54.6 µM (inactive); in test [8], 28.7 µM (inactive); in test [9], > 100 µM (inactive); in test [10], 46.2 µM (inactive); in test [11], 27.9 µM (inactive); in [12], 44.6 µM (inactive). The GI50 in test [14] was 31.9 µM (inactive); in [15] it was > 100 µM (inactive); in [16], 18.9 µM (inactive); in test [17] it was 18.3 µM (inactive); in test [18], 22.6 µM (inactive).

`COc1cc(OC)c(OC)cc1/C=C1\C=Cc2ccccc21`: the GI50 was 13.5 µM (inactive) in test [2]; 6.31 µM (inactive) in [3]; 15.2 µM (inactive) in test [4]; 16.3 µM (inactive) in test [5]; 11.7 µM (inactive) in test [8]; 2.04 µM (inactive) in [9]. Moreover, the GI50 is 10.3 µM (inactive) in test [10]; > 10 µM (inactive) in test [11]; 26.9 µM (inactive) in test [12]; 13 µM (inactive) in test [13]; 15.9 µM (inactive) in [14]; 12.5 µM (inactive) in test [15]. Also, the GI50 was 28.1 µM (inactive) in test [16], 9.12 µM (inactive) in [17] and 5.82 µM (inactive) in test [19].

As to `C[N+](C)([O-])Cc1cc(-c2ccccc2)ccc1O`, the GI50 in [1] is > 100 µM (inactive); in test [2], > 100 µM (inactive); in test [3], 52.5 µM (inactive); in test [5], > 100 µM (inactive); in test [6] it was > 100 µM (inactive); in [7], > 100 µM (inactive). The GI50 in [8], in test [9], in test [10], in test [11], in [12] and in test [13] was > 100 µM (inactive) each time. Also, the GI50 in test [14], in [15], in [16], in test [17] and in test [18] was > 100 µM (inactive) throughout.

Regarding `NC(Cc1ccccc1)c1nccs1` (centres undefined), the GI50 in test [1], in test [2], in test [3], in [4], in [5] and in test [6] was > 100 µM (inactive) each time. Moreover, the GI50 in test [7], in test [8], in [9], in test [10], in [11] and in test [12] was > 100 µM (inactive) in each case. Further, the GI50 in test [13], in [14], in [15], in test [16], in [17] and in test [18] was > 100 µM (inactive) in each case.

Take `CN(C)c1ccc(/C=C/C(=O)N[C@@H]2C(=O)N3[C@@H]2SC(C)(C)[C@@H]3C(=O)O)cc1`: the GI50 in [1], in [2], in test [3], in [4], in test [5] and in test [6] was > 100 µM (inactive) in each case. In addition, the GI50 in [8], in test [9], in test [10], in [11], in test [12] and in test [13] was > 100 µM (inactive) throughout. Besides, the GI50 in [14], in test [15], in [16], in test [17], in [19] and in [18] was > 100 µM (inactive) in each case.

Regarding `O=c1[nH]nc(Cn2c3ccc(Br)cc3c3nc4ccccc4nc32)n1C1CCCCC1`, the GI50 in [1] is 23.3 µM (inactive); in test [2], 54.6 µM (inactive); in [3], < 0.01 µM (active); in [4], 13.3 µM (inactive); in test [5], 26.2 µM (inactive); in test [6], 35.1 µM (inactive). The GI50 is 46.3 µM (inactive) in test [7]; 36.1 µM (inactive) in test [8]; > 100 µM (inactive) in [9]; 54 µM (inactive) in test [10]; 32.3 µM (inactive) in [11]; 59.4 µM (inactive) in [12]. Besides, the GI50 was < 0.01 µM (active) in [13]; 17.7 µM (inactive) in test [14]; 34.2 µM (inactive) in [15]; 25.2 µM (inactive) in test [16]; 30.5 µM (inactive) in test [17]; > 100 µM (inactive) in test [18].

As for `Cn1c2ccccc2c2c3c(c4c5ccccc5n(C5OC(CO)C(O)C(O)C5O)c4c21)C(=O)OC3=O` (centres undefined), the GI50 in [1], in [2], in test [3], in [4], in test [5] and in [6] was > 100 µM (inactive) in each case. Moreover, the GI50 was > 100 µM (inactive) in test [7]; > 100 µM (inactive) in [8]; 87.3 µM (inactive) in test [9]; > 100 µM (inactive) in [10]; > 100 µM (inactive) in [11]; > 100 µM (inactive) in test [12]. The GI50 in test [13], in test [14], in test [15], in test [16], in [17] and in [18] was > 100 µM (inactive) throughout.

On to `O=C(c1ccco1)C1CC(c2ccc3ccccc3c2O)=NN1c1ccc([N+](=O)[O-])cc1[N+](=O)[O-]` (centres undefined), for which the GI50 in [1] was 28.1 µM (inactive); in [2], 27.7 µM (inactive); in [3] it was 1.71 µM (inactive); in [4], 28 µM (inactive); in [5], 28.6 µM (inactive); in [6] it was 22.9 µM (inactive). The GI50 in test [7] is 12.4 µM (inactive); in test [8], 13.7 µM (inactive); in [9], 12.5 µM (inactive); in test [10] it was 3.95 µM (inactive); in test [11], 23.7 µM (inactive); in test [12], 20.6 µM (inactive). The GI50 in test [14] was 33.3 µM (inactive); in [15], 16 µM (inactive); in [16], 31 µM (inactive); in test [17], 28.4 µM (inactive); in test [18] it was 33.5 µM (inactive).

For `S=C(Nc1ccc(Br)cn1)NC12CC3CC(CC(C3)C1)C2`, the GI50 in test [1] is 46.3 µM (inactive); in test [2], 19.4 µM (inactive); in [3] it was 25.8 µM (inactive); in test [4], 10.1 µM (inactive); in test [5], 25.1 µM (inactive); in [6] it was 46 µM (inactive). Also, the GI50 in test [7] was 7.18 µM (inactive); in test [9] it was 13.9 µM (inactive); in test [10], > 100 µM (inactive); in [11], 33 µM (inactive); in test [12], 20.5 µM (inactive); in test [14] it was 23.9 µM (inactive). Moreover, the GI50 in test [15] was 17.5 µM (inactive); in test [16] it was 8.05 µM (inactive); in test [17], 11.3 µM (inactive); in test [18] it was 35.9 µM (inactive).

The values are drawn from ChEMBL document CHEMBL1201862, “PubChem BioAssay data set” (2004).
